Laboratory results taken from US20210085640A1, “ACYLATED CATECHIN POLYPHENOLS AND METHODS OF THEIR USE FOR THE TREATMENT OF CANCER” (Flagship Pioneering Innovations V, Inc., priority 2018, published 2021).

Legend:
Format in all cases: cell-based
AGS stomach cancer cells = assay: Cancer cell survival (CellTiter-Glo), AGS; parameters: Cell survival at given concentration: unit not given here
Method: (§1) The cells were prepared as follows. Cells were harvested during logarithmic growth, counted, and adjusted to 4.44×10^4 cells/mL with culture media. 90 μL of suspended cells were added to wells of 96-well plates for a final cell count of 4×10^3 cells/well. The plates were incubated overnight at 37 C with 5% CO2 overnight.
(§2) The test compounds were assayed as follows. Compound solutions were mixed at 10× final concentrations in cell media: 1 μM-10 mM (fatty acids) or 100 nM-1 mM (all other compounds). […] of solution was added to each well of cells in triplicate for each concentration. Well plates were incubated for 72 h at 37 C with 5% CO2 and then assayed with CellTiter-Glo by adding 50 μL of CTG solution to each well. Cells were lysed by shaking on an orbital shaker for 5 min. Plates were incubated at room temperature for 20 min and then each well's luminescence was measured. The surviving percentage of cells was determined as:
(§3) Survival %=(LumTest article−LumMedium control)/(LumNone treated−LumMedium control)[…]
(§4) Cytotoxicity was assessed at nine concentration levels for each compound and the 50% inhibition concentration (IC50) determined for each compound.

MCF7 breast cancer cells = assay: Cancer cell survival (CellTiter-Glo), MCF7; settings: 72 h
Method: as §1, §2, §3, §4

[1] = system: Daudi lymphoma cancer cells; assay: Cancer cell survival (CellTiter-Glo), Daudi; settings: 72 h
Method: as §1, §2, §3
Activity was assessed at nine concentration levels for each compound and the 50% inhibition concentration (IC50) determined for each compound.

[2] = system: PC-3 prostate cancer cells; assay: Cancer cell survival (CellTiter-Glo), PC-3; settings: PC-3 cells, 72 h
Method: as §1, §2, §3, §4

[3] = system: HCT 116 colorectal cancer cells; assay: Cancer cell survival (CellTiter-Glo), HCT 116; settings: HCT 116 cells, 72 h
Method: as §1, §2, §3, §4

A549 lung cancer cells = assay: Cancer cell survival (CellTiter-Glo), A549; settings: 72 h
Method: as §1, §2, §3, §4

A-431 skin cancer cells = assay: Cancer cell survival (CellTiter-Glo), A-431; parameters: Cell survival at given concentration: unit not given here; settings: A-431 cells, 72 h
Method: as §1, §2, §3, §4

T24 bladder cancer cells = assay: Cancer cell survival (CellTiter-Glo), T24; settings: 72 h
Method: as §1, §2, §3
Efficacy was assessed at nine concentration levels for each compound and the 50% inhibition concentration (IC50) determined for each compound.

CC(O)CCO (stereo not drawn) [butanediol]
0.96: Cell survival at given concentration (MCF7 breast cancer cells; 10 mM) | Cell survival at given concentration ([2]; 10 mM) | Cell survival at given concentration ([3]; 3 μM, Table 6.2)
0.99: Cell survival at given concentration (MCF7 breast cancer cells; 3 μM, Table 5.2) | Cell survival at given concentration ([2]; 3 μM, Table 8.2) | Cell survival at given concentration ([3]; 3 mM) | Cell survival at given concentration (T24 bladder cancer cells; 10 μM, Table 3.2)
0.97: Cell survival at given concentration ([1]; 3 μM, Table 4.2) | Cell survival at given concentration ([1]; 10 μM, Table 4.2) | Cell survival at given concentration ([2]; 1 mM) | Cell survival at given concentration ([3]; 32 μM, Table 6.2) | Cell survival at given concentration (A549 lung cancer cells; 3 μM, Table 7.2) | Cell survival at given concentration (A549 lung cancer cells; 3 mM)
1.03: Cell survival at given concentration (AGS stomach cancer cells; 10 μM, Table 10.2) | Cell survival at given concentration (MCF7 breast cancer cells; 100 μM, Table 5.2) | Cell survival at given concentration ([2]; 10 μM, Table 8.2) | Cell survival at given concentration (A549 lung cancer cells; 10 μM, Table 7.2) | Cell survival at given concentration (A-431 skin cancer cells; 3 μM, Table 9.2) | Cell survival at given concentration (A-431 skin cancer cells; 100 μM, Table 9.2) | Cell survival at given concentration (T24 bladder cancer cells; 3 μM, Table 3.2) | Cell survival at given concentration (T24 bladder cancer cells; 317 μM)
0.98: Cell survival at given concentration (AGS stomach cancer cells; 10 mM) | Cell survival at given concentration (MCF7 breast cancer cells; 10 μM, Table 5.2) | Cell survival at given concentration (MCF7 breast cancer cells; 3 mM) | Cell survival at given concentration ([1]; 1 μM, Table 4.2) | Cell survival at given concentration ([1]; 32 μM, Table 4.2) | Cell survival at given concentration ([2]; 3 mM) | Cell survival at given concentration ([3]; 1 μM, Table 6.2) | Cell survival at given concentration ([3]; 10 μM, Table 6.2) | Cell survival at given concentration (A549 lung cancer cells; 10 mM)
0.95: Cell survival at given concentration ([3]; 10 mM) | Cell survival at given concentration (A549 lung cancer cells; 1 μM, Table 7.2)
1.04: Cell survival at given concentration (AGS stomach cancer cells; 100 μM, Table 10.2) | Cell survival at given concentration (A-431 skin cancer cells; 10 μM, Table 9.2) | Cell survival at given concentration (A-431 skin cancer cells; 32 μM, Table 9.2) | Cell survival at given concentration (A-431 skin cancer cells; 317 μM)
1.01: Cell survival at given concentration (AGS stomach cancer cells; 1 μM, Table 10.2) | Cell survival at given concentration (MCF7 breast cancer cells; 317 μM) | Cell survival at given concentration ([1]; 317 μM) | Cell survival at given concentration ([3]; 1 mM) | Cell survival at given concentration (A549 lung cancer cells; 32 μM, Table 7.2) | Cell survival at given concentration (A549 lung cancer cells; 1 mM) | Cell survival at given concentration (A-431 skin cancer cells; 10 mM) | Cell survival at given concentration (T24 bladder cancer cells; 100 μM, Table 3.2)
1.06: Cell survival at given concentration (AGS stomach cancer cells; 1 mM)
1.00: Cell survival at given concentration (MCF7 breast cancer cells; 1 μM, Table 5.2) | Cell survival at given concentration (MCF7 breast cancer cells; 1 mM) | Cell survival at given concentration ([1]; 100 μM, Table 4.2) | Cell survival at given concentration ([1]; 1 mM) | Cell survival at given concentration ([1]; 3 mM) | Cell survival at given concentration ([1]; 10 mM) | Cell survival at given concentration ([2]; 1 μM, Table 8.2) | Cell survival at given concentration ([2]; 100 μM, Table 8.2) | Cell survival at given concentration ([3]; 100 μM, Table 6.2) | Cell survival at given concentration (A549 lung cancer cells; 100 μM, Table 7.2) | Cell survival at given concentration (T24 bladder cancer cells; 32 μM, Table 3.2) | Cell survival at given concentration (T24 bladder cancer cells; 3 mM) | Cell survival at given concentration (T24 bladder cancer cells; 10 mM)
1.02: Cell survival at given concentration (AGS stomach cancer cells; 3 μM, Table 10.2) | Cell survival at given concentration (AGS stomach cancer cells; 317 μM) | Cell survival at given concentration (AGS stomach cancer cells; 3 mM) | Cell survival at given concentration (MCF7 breast cancer cells; 32 μM, Table 5.2) | Cell survival at given concentration ([2]; 32 μM, Table 8.2) | Cell survival at given concentration ([2]; 317 μM) | Cell survival at given concentration ([3]; 317 μM) | Cell survival at given concentration (A549 lung cancer cells; 317 μM) | Cell survival at given concentration (A-431 skin cancer cells; 1 μM, Table 9.2) | Cell survival at given concentration (A-431 skin cancer cells; 1 mM) | Cell survival at given concentration (A-431 skin cancer cells; 3 mM) | Cell survival at given concentration (T24 bladder cancer cells; 1 μM, Table 3.2) | Cell survival at given concentration (T24 bladder cancer cells; 1 mM)
1.05: Cell survival at given concentration (AGS stomach cancer cells; 32 μM, Table 10.2)

CCCCC(=O)O [valerate]
0.50: Cell survival at given concentration (MCF7 breast cancer cells; 10 mM)
0.71: Cell survival at given concentration (A-431 skin cancer cells; 10 mM)
0.63: Cell survival at given concentration (AGS stomach cancer cells; 10 mM)
0.95: Cell survival at given concentration ([1]; 100 μM, Table 4.2)
0.91: Cell survival at given concentration ([1]; 317 μM)
0.89: Cell survival at given concentration (A-431 skin cancer cells; 3 mM) | Cell survival at given concentration (T24 bladder cancer cells; 1 mM)
1.03: Cell survival at given concentration (AGS stomach cancer cells; 1 μM, Table 10.2) | Cell survival at given concentration (AGS stomach cancer cells; 3 μM, Table 10.2) | Cell survival at given concentration (AGS stomach cancer cells; 32 μM, Table 10.2) | Cell survival at given concentration (A-431 skin cancer cells; 317 μM)
0.17: Cell survival at given concentration ([3]; 10 mM)
0.90: Cell survival at given concentration ([3]; 1 mM)
0.39: Cell survival at given concentration ([1]; 3 mM)
1.00: Cell survival at given concentration (MCF7 breast cancer cells; 1 μM, Table 5.2) | Cell survival at given concentration (MCF7 breast cancer cells; 100 μM, Table 5.2) | Cell survival at given concentration ([2]; 1 μM, Table 8.2) | Cell survival at given concentration ([3]; 32 μM, Table 6.2) | Cell survival at given concentration (A549 lung cancer cells; 3 μM, Table 7.2) | Cell survival at given concentration (T24 bladder cancer cells; 1 μM, Table 3.2)
0.76: Cell survival at given concentration (MCF7 breast cancer cells; 3 mM) | Cell survival at given concentration ([1]; 1 mM)
0.62: Cell survival at given concentration (A549 lung cancer cells; 10 mM)
1.06: Cell survival at given concentration (AGS stomach cancer cells; 317 μM) | Cell survival at given concentration (AGS stomach cancer cells; 1 mM)
1.05: Cell survival at given concentration (AGS stomach cancer cells; 100 μM, Table 10.2)
1.04: Cell survival at given concentration (AGS stomach cancer cells; 10 μM, Table 10.2) | Cell survival at given concentration ([2]; 100 μM, Table 8.2) | Cell survival at given concentration ([3]; 10 μM, Table 6.2) | Cell survival at given concentration (A549 lung cancer cells; 100 μM, Table 7.2)
0.79: Cell survival at given concentration (T24 bladder cancer cells; 3 mM)
0.60: Cell survival at given concentration ([3]; 3 mM) | Cell survival at given concentration (T24 bladder cancer cells; 10 mM)
0.92: Cell survival at given concentration (T24 bladder cancer cells; 317 μM)
0.94: Cell survival at given concentration (MCF7 breast cancer cells; 1 mM) | Cell survival at given concentration ([2]; 1 mM)
0.99: Cell survival at given concentration ([1]; 1 μM, Table 4.2) | Cell survival at given concentration ([2]; 3 μM, Table 8.2) | Cell survival at given concentration ([3]; 1 μM, Table 6.2) | Cell survival at given concentration ([3]; 3 μM, Table 6.2) | Cell survival at given concentration ([3]; 317 μM)
0.98: Cell survival at given concentration ([1]; 3 μM, Table 4.2) | Cell survival at given concentration ([1]; 10 μM, Table 4.2) | Cell survival at given concentration (A549 lung cancer cells; 1 μM, Table 7.2) | Cell survival at given concentration (A549 lung cancer cells; 1 mM) | Cell survival at given concentration (A-431 skin cancer cells; 1 mM) | Cell survival at given concentration (T24 bladder cancer cells; 32 μM, Table 3.2) | Cell survival at given concentration (T24 bladder cancer cells; 100 μM, Table 3.2)
0.97: Cell survival at given concentration (AGS stomach cancer cells; 3 mM) | Cell survival at given concentration (MCF7 breast cancer cells; 32 μM, Table 5.2) | Cell survival at given concentration ([2]; 317 μM) | Cell survival at given concentration (A549 lung cancer cells; 32 μM, Table 7.2)
4.07 mM: IC50 ([3]; Table 6.2)
0.84: Cell survival at given concentration ([2]; 3 mM)
0.87: Cell survival at given concentration (A549 lung cancer cells; 3 mM)
1.02: Cell survival at given concentration (MCF7 breast cancer cells; 3 μM, Table 5.2) | Cell survival at given concentration ([2]; 10 μM, Table 8.2) | Cell survival at given concentration (A549 lung cancer cells; 317 μM) | Cell survival at given concentration (A-431 skin cancer cells; 10 μM, Table 9.2) | Cell survival at given concentration (A-431 skin cancer cells; 32 μM, Table 9.2) | Cell survival at given concentration (A-431 skin cancer cells; 100 μM, Table 9.2)
0.96: Cell survival at given concentration (MCF7 breast cancer cells; 317 μM)
2.3 mM: IC50 ([1]; Table 4.2)
> 10 mM: IC50 (MCF7 breast cancer cells; Table 5.2) | IC50 ([2]; Table 8.2) | IC50 (A549 lung cancer cells; Table 7.2) | IC50 (T24 bladder cancer cells; Table 3.2, read-out: IC50)
1.01: Cell survival at given concentration (MCF7 breast cancer cells; 10 μM, Table 5.2) | Cell survival at given concentration ([1]; 32 μM, Table 4.2) | Cell survival at given concentration ([2]; 32 μM, Table 8.2) | Cell survival at given concentration ([3]; 100 μM, Table 6.2) | Cell survival at given concentration (A549 lung cancer cells; 10 μM, Table 7.2) | Cell survival at given concentration (A-431 skin cancer cells; 1 μM, Table 9.2) | Cell survival at given concentration (A-431 skin cancer cells; 3 μM, Table 9.2) | Cell survival at given concentration (T24 bladder cancer cells; 3 μM, Table 3.2) | Cell survival at given concentration (T24 bladder cancer cells; 10 μM, Table 3.2)
0.12: Cell survival at given concentration ([1]; 10 mM)
0.69: Cell survival at given concentration ([2]; 10 mM)
